Laboratory results taken from patent US20260199371A1, “COORDINATION COMPOUND, COMPOSITIONS, AND USES THEREOF FOR TREATING CANCERS” (HUEIYUAN BIOTECH LLC, priority 2023, published 2026).

Legend:
CL1-parental cells = conditions: 0-1600 μg/ml, 24 hours
Description: BEAS-2B cells (95102433, Sigma-Aldrich) were cultured in LHC-9 medium (Gibco™, Thermo Fisher Scientific, Waltham, MA, USA).

LoVo-OXAR cells [1] = conditions: 2000 μg/ml, 24 hours, versus control
Description: (§1) To evaluate whether the compound (II) induces apoptosis of cancer cells, terminal deoxynucleotidyl transferase dUTP nick-end labeling (TUNEL) assay was employed to detect apoptosis. In brief, LoVo-parental cells and LoVo-OXAR cells were treated with 500 μg/ml and 2000 μg/ml of the compound (II), respectively, for 24 hours before they were subject to TUNEL assay (In Situ Cell Death Detection Kit; Roche Applied Science, Indianapolis, IN, USA) and nuclear counterstain with 0.1 mg/ml 4′,6-diamidino-2-phenylindole (DAPI, Sigma-Aldrich, St. Louis, MO, USA). Lovo-parental or LoVo-OXAR cells treated with 0 μg/ml of the compound (II) were set as control groups. TUNEL-positive cells were examined by Olympus CKX53 microscope (Olympus, Shinjuku-ku, Tokyo, Japan).

LoVo-parental cells [2] = conditions: 500 μg/ml, 24 hours, versus control
Description: as §1

[3] = tested on: EMT markers in LoVo-OXAR cells; conditions: immunofluorescence
Source text: (§2) Vimentin and E-cadherin are molecular markers linked to tumor progression through their roles in EMT, which is a pathological process contributing to migration and invasion of cancer cells and tumor progression. Vimentin is a key component of intermediate filaments, which helps maintain cellular integrity and resistance to stress. E-cadherin plays a role in maintaining epithelial phenotypes by mediating contact inhibition when cells proliferate and reach confluence. To further investigate the influence of the compound (II) on EMT marker expression, western blotting, immunofluorescence detection, and quantitative real-time reverse transcription polymerase chain reaction (qRT-PCR) were performed in LoVo-parental and LoVo-OXAR cells treated with various doses of the compound (II) for 24 hours.
(§3) The cells were then permeabilized with 0.1% Triton X-100 in 0.1% sodium citrate and the well was blocked with blocking buffer (2% bovine serum albumin), followed by immunofluorescence staining. The cells were incubated with primary antibodies against vimentin and E-cadherin for 24 hours at 4° C. and subsequently incubated with fluorescent secondary antibodies for 1 hour at 25° C. before DAPI staining and observation using fluorescence microscopy.

[4] = tested on: EMT markers in LoVo-parental cells; conditions: immunofluorescence
Source text: as §2, §3

[5] = tested on: EMT markers in LoVo-parental cells; conditions: qRT-PCR
Source text: as §2
Total RNA from the cells after the indicated treatments was extracted using the GeneJET RNA purification kit (ThermoFisher Scientific, Lithuania) and reverse transcribed to cDNA using a GScript First-Strand Synthesis Kit, a cDNA synthesis kit, and Oligo-dT primers according to the manufacturer's instructions. RT-PCR was performed using ORA^T SEE qPCR Green ROX L Mix, 2× (HighQu, USA). Primers for EMT markers (Vimentin, E-cadherin, TJP1, and FN1) and GAPDH (as endogenous control) were synthesized by Bio-ProTech based the sequences in TABLE 1. The 2^−ΔΔCt method was used to calculate a relative fold change in gene expression. […] TJP1 is a marker of epithelial cells that disappears during EMT and cancer development. In contrast, FN1 is involved in the occurrence and development of various tumors and acts as a critical gene in gastric cancer.

HA22T-parental cells = conditions: 24 hours
LNCaP cells = conditions: 24 hours
Description: Human prostate carcinoma LNCaP cells (commercially available from ATCC under the number CRL-1740) were cultured in RPMI-1640 medium (Gibco™, Thermo Fisher Scientific, Waltham, MA, USA) supplemented with 10% FBS.

GBM 8401 cells = conditions: 0-1800 μg/ml, 24 hours
Description: Human brain glioblastoma multiforme GBM 8401 cells (commercially available from BCRC under the number BCRC 60163) were cultured in RPMI 1640 medium supplemented with 10% FBS.

MDA-MB231 cells = conditions: 0-3000 μg/ml, 24 hours; effect more prominent than in T-47D
Description: (§4) Human breast cancer cells T-47D (commercially available from ATCC under the number HTB-133) and MDA-MB231 (commercially available from ATCC under the number HTB-26) were cultured in RPMI 1640 medium supplemented with 10% FBS.

T-47D cells = conditions: 0-3000 μg/ml, 24 hours
Description: as §4

T24 cells = conditions: 0-1600 μg/ml, 24 hours
Description: Human bladder carcinoma T24 cells (commercially available from ATCC under the number HTB-4) were cultured in RPMI 1640 medium supplemented with 10% FBS.

HeLa cells = conditions: 0.5-1000 μg/ml, 48 hours
Description: Human cervical carcinoma HeLa cells (commercially available from ATCC under the number CCL-2) were cultured in DMEM supplemented with 10% FBS.

TT cells = conditions: 0.1-1000 μg/ml, 72 hours
Description: Human medullary thyroid carcinoma TT cells (commercially available from ATCC under the number CRL-1803) were cultured in F12K medium (Gibco™, Thermo Fisher Scientific, Waltham, MA, USA) supplemented with 10% FBS.

A431 cells = conditions: 1-1000 μg/ml, 48 hours
Description: Human epidermoid carcinoma A431 cells (commercially available from ATCC under the number CRL-1555) were cultured in DMEM supplemented with 10% FBS.

LoVo-parental cells [6] = conditions: 24 hours
LoVo-OXAR cells [7] = conditions: single agent: compound (II) 2000 μg/ml or oxaliplatin 50 μg/ml, 72 hours

CC(=O)[O-].CC(=O)[O-].CC(=O)[O-].CC(=O)[O-].CC(=O)[O-].CC(=O)[O-].O.O.O.O.O=[N+]([O-])[O-].[Cr+3].[Fe+3].[Fe+3].[OH-].[OH-] [compound (II)]
viability of CL1-parental cells (CL1-parental cells): reduced the viability of both lung cancer cells in a dose-dependent manner | apoptotic cell death (TUNEL) in LoVo-OXAR cells (LoVo-OXAR cells [1]): significant increase in apoptotic cell death | apoptotic cell death (TUNEL) in LoVo-parental cells (LoVo-parental cells [2]): significant increase in apoptotic cell death | expression of E-cadherin [3]: significantly increased | vimentin expression [3]: significantly suppressed | expression of E-cadherin [4]: significantly increased | vimentin expression [4]: significantly suppressed | E-cadherin mRNA expression [5]: increased | FN1 mRNA expression [5]: decreased | TJP1 mRNA expression [5]: increased | vimentin mRNA expression [5]: decreased | viability of HA22T-parental cells (HA22T-parental cells; 0-1250 μg/ml): reduced the viability of both liver cancer cells in a dose-dependent manner | IC50 against HA22T-parental cells (HA22T-parental cells; MTT): approximately 1000 μg/ml | viability of LNCaP cells (LNCaP cells; 0-1600 μg/ml): reduced the viability of the prostate cancer cells in a dose-dependent manner | IC50 against LNCaP cells (LNCaP cells; MTT): approximately 1033 μg/ml | viability of GBM 8401 cells (GBM 8401 cells): reduced the viability of the glioblastoma cells in a dose-dependent manner | viability of MDA-MB231 cells (MDA-MB231 cells): reduced the viability of both breast cancer cells in a dose-dependent manner | viability of T-47D cells (T-47D cells): reduced the viability of both breast cancer cells in a dose-dependent manner | viability of T24 cells (T24 cells): reduced the viability of the bladder carcinoma cells in a dose-dependent manner | viability of HeLa cells (HeLa cells): reduced the viability of the metastatic Hela cells in a dose-dependent manner | viability of TT cells (TT cells): reduced the viability of the TT cells in a dose-dependent manner | viability of A431 cells (A431 cells): reduced the viability of the A431 cells in a dose-dependent manner | viability of LoVo-parental cells (LoVo-parental cells [6]; 0-4000 μg/ml): reduced the viability of both colorectal cancer cells in a dose-dependent manner | IC50 against LoVo-parental cells (LoVo-parental cells [6]; MTT): about 500 μg/ml | invasion rate of LoVo-OXAR cells (LoVo-OXAR cells [7]): significantly decreased
